Experimental data: patent US7071205B2 (Ligand Pharmaceuticals Incorporated, priority 2002, dated 2006)
pEC50, pIC50, pKi: −log10 of the molar value. Where two headings read alike, the source gives them in different places.

Assays:
hPR [1] = target: T1, hPR (Homo sapiens, UniProt P06401); assay: Cotransfection assay, PR agonist activity in CV-1 cells; assay type: cell-based; conditions: for pEC50: agonist potency EC50, read-out: PR Agonist CV-1 Cells Potency
T1 sequence (P06401 1-933): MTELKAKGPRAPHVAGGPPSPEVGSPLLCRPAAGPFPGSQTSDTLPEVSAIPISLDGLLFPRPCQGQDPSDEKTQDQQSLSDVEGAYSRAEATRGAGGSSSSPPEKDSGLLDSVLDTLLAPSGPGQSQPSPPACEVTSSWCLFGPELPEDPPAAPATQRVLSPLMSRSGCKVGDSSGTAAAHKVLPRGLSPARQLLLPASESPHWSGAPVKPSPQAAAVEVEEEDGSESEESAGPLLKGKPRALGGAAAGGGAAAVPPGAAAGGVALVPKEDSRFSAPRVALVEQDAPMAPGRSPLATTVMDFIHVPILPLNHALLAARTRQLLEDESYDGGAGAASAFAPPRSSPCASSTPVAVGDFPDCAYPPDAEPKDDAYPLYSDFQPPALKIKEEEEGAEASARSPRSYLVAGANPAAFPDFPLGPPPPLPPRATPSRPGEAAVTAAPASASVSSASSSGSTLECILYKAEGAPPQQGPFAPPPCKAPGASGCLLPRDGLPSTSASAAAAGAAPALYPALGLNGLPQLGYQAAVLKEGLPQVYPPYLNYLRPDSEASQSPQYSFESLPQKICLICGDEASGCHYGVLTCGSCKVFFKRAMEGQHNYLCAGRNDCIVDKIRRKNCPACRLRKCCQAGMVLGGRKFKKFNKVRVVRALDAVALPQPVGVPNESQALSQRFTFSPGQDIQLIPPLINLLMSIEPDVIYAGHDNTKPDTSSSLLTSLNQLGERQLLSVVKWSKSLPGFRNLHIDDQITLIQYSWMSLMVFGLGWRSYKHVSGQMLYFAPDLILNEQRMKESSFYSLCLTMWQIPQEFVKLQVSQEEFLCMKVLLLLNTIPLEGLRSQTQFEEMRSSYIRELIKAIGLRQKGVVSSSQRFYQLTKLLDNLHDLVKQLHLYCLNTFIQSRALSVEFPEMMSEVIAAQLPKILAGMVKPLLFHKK
Procedure: (§1) All the cotransfection experiments were carried out in 96-well plates by automation (Beckman Biomomek automated workstation).

hPR [2] = target: T1, hPR; assay: Cotransfection assay, PR antagonist activity in CV-1 cells; assay type: cell-based; conditions: for pIC50: antagonist potency IC50; for PR Antagonist CV-1 Cells Efficacy (%): percent maximal response relative to reference antagonist
Procedure: as §1

hPR-A = target: T2, hPR-A (Homo sapiens, UniProt P06401); assay: Receptor competitive binding assay; conditions: hPR-A; read-out: PR Binding Ki
T2 sequence (P06401 1-769 isoform P06401-2): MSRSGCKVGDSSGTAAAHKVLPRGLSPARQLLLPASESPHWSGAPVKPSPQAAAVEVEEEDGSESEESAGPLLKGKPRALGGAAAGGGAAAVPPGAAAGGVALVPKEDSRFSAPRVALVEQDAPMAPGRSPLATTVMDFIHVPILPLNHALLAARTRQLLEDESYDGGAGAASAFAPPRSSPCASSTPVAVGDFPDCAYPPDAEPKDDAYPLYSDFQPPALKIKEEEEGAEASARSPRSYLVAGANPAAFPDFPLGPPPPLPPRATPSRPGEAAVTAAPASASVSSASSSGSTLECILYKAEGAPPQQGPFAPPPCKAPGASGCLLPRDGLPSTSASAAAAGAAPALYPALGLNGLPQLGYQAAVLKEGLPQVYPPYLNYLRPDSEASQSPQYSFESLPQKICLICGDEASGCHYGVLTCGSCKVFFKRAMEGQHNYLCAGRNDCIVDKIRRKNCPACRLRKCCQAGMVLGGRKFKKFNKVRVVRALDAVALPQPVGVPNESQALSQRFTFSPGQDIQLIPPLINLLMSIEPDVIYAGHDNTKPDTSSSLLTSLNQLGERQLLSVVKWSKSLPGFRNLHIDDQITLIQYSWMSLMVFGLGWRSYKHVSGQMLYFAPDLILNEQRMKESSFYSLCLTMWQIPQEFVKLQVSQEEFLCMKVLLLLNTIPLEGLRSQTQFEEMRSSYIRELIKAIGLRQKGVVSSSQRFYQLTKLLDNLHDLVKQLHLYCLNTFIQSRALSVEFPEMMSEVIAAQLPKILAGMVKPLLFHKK

[3] = CV-1 cells, MTV-LUC reporter, percent maximal response relative to progesterone

Row | Structure (SMILES) | PR Agonist CV-1 Cells Efficacy (%) (hPR [1]; [3]) | pEC50 (hPR [1]; CV-1 cells) | pIC50 (hPR [2]) | PR Antagonist CV-1 Cells Efficacy (%) (hPR [2]) | pKi (hPR-A) | PR Agonist CV-1 Cells Efficacy (%) (hPR [1])
1 | CC1=CC(C2Oc3ccc(F)cc3-c3ccc4c(c32)C(C)=CC(C)(C)N4)CCC1 (racemic) [Compound 25, (±)-(5l,1′u)-5-(3-methyl-2-cyclohexenyl)-9-fluoro-1,2-dihydro-2,2,4-trimethyl-5H-chromeno[3,4-f]quinoline] | 86% | 8.01 | < 5.00 | na (na = not active (i.e. efficacy of <20 and potency of >10,000)) | 8.20 | 
2 | CC1=CC(C2Oc3ccc(F)cc3-c3ccc4c(c32)C(C)=CC(C)(C)N4)CC1 (racemic) [Compound 44, (±)-(5l,1′l)-5-(3-methyl-2-cyclopentenyl)-9-fluoro-1,2-dihydro-2,2,4-trimethyl-5H-chromeno[3,4-f]quinoline] | 123% | 8.17 | < 5.00 | na (na = not active (i.e. efficacy of <20 and potency of >10,000)) | 8.11 | 
3 | COc1cc2c(cc1F)-c1ccc3c(c1C(C1C=C(C)CCC1)O2)C(C)=CC(C)(C)N3 (racemic) [Compound 64, (±)-(5l,1′l)-5-(3-methyl-2-cyclohexenyl)-9-fluoro-1,2-dihydro-8-methoxy-2,2,4-trimethyl-5H-chromeno[3,4-f]quinoline] | na (na = not active (i.e. efficacy of <20 and potency of >10,000)) | < 5.00 | 5.72 | 80% | 6.31 | 
4 | CC1=CC(C2Oc3c(F)cc(F)cc3-c3ccc4c(c32)C(C)=CC(C)(C)N4)CCC1 (single isomer, unassigned; (+)) [Compound 37, (+)-(5l,1′l)-5-(3-methyl-2-cyclohexenyl)-7,9-difluoro-1,2-dihydro-2,2,4-trimethyl-5H-chromeno[3,4-f]quinoline] | na (na = not active (i.e. efficacy of <20 and potency of >10,000)) |  |  | 50% |  | 
5 | CN(C)c1ccc([C@H]2C[C@]3(C)[C@@H](CC[C@]3(O)CCCO)[C@@H]3CCC4=CC(=O)CCC4=C32)cc1 [ZK299, reference compound] |  |  |  | 99% |  | 
6 | CC1=CC(C2Oc3ccc(F)cc3-c3ccc4c(c32)C(C)=CC(C)(C)N4)CCC1 (single isomer, unassigned; (+)) [Compound 27, (+)-(5l,1′l)-5-(3-methyl-2-cyclohexenyl)-9-fluoro-1,2-dihydro-2,2,4-trimethyl-5H-chromeno[3,4-f]quinoline] | 68% | 7.37 | < 5.00 | na (na = not active (i.e. efficacy of <20 and potency of >10,000)) | 6.62 | 
7 | CC1=CC(C2Oc3ccc(F)cc3-c3ccc4c(c32)C(C)=CC(C)(C)N4)CC1 (racemic) [Compound 45, (±)-(5l,1′u)-5-(3-methyl-2-cyclopentenyl)-9-fluoro-1,2-dihydro-2,2,4-trimethyl-5H-chromeno[3,4-f]quinoline] | 94% | 8.04 | < 5.00 | na (na = not active (i.e. efficacy of <20 and potency of >10,000)) | 7.77 | 
8 | CC1=C[C@@H]([C@H]2Oc3c(F)cc(F)cc3-c3ccc4c(c32)C(C)=CC(C)(C)N4)CCC1 (racemic) [Compound 35, (±)-(5l,1′u)-5-(3-methyl-2-cyclohexenyl)-7,9-difluoro-1,2-dihydro-2,2,4-trimethyl-5H-chromeno[3,4-f]quinoline] | 100% |  |  | na (na = not active (i.e. efficacy of <20 and potency of >10,000)) |  | 
9 | CC#C[C@]1(O)CC[C@H]2[C@@H]3CCC4=CC(=O)CCC4=C3[C@@H](c3ccc(N(C)C)cc3)C[C@@]21C [RU486, mifepristone, reference compound] |  |  |  |  |  | na (key: na = not active (i.e. efficacy of <20 and potency of >10,000))
10 | CC(=O)[C@H]1CC[C@H]2[C@@H]3CCC4=CC(=O)CC[C@]4(C)[C@H]3CC[C@]12C [Prog, progesterone, reference compound] | 100% |  |  |  |  | 
